According to patent publication US20250295804A1, “PEG BASED ANTI-CD47/ANIT-PD-L1 BISPECIFIC ANTIBODY-DRUG CONJUGATE” (Shenzhen Enduring Biotech, Ltd., priority 2022, published 2025):

Key:
BxPC-3 tumor cells = assay: FACS selective binding assay, tumor cells; assay type: cell-based; conditions: BxPC-3, 30 min at 4° C.
Protocol: (§1) Briefly, freshly prepared red blood cells (from healthy donors) and BxPC-3 tumor cells (Procell, Wuhan, China) were used as target cells. […] The cells were washed at least twice with PBS and analyzed with flow cytometry after incubation.

[1] = tested on: red blood cells (from healthy donors); assay: FACS selective binding assay, red blood cells; assay type: cell-based; conditions: 30 min at 4° C.
Protocol: as §1

“Hu5F9-G4: anti-CD47 antibody, expressed and prepared in house [reference compound]” was tested, and the “binding to target cells” value (BxPC-3 tumor cells) was “specifically bind” and the “binding to target cells” value [1] was “binds with high affinity”.
